These results are taken from ChEMBL document CHEMBL2429842, “Phthaloyl amino acids as anti-inflammatory and immunomodulatory prototypes” (Med Chem Res, 2013).

Active and inactive are the calls of the source. The calls are words filed in the database; no cut-off is given here.

One series relates to SF-295. Description: Antiproliferative activity against human SF295 cells at 25 ug/ml after 48 hrs by MTT assay. Type of series: functional. As to conditions: SF-295, 48 h. (Tetrazolium dyes change colour on reduction, which living cells bring about.)
The test system of a further series is HCT-8. In words: Antiproliferative activity against human HCT8 cells at 25 ug/ml after 48 hrs by MTT assay. As to conditions: HCT-8, 48 h. Type of series: functional.
The test system of a further series is MDA-MB-435. In words: Antiproliferative activity against human MDA-MB-435 cells at 25 ug/ml after 48 hrs by MTT assay. As to conditions: MDA-MB-435, 48 h. Type of series: functional.
Series [1] concerns Peritoneal macrophage cell. Description: Immunomodulatory activity mouse peritoneal macrophages assessed as inhibition of LPS-induced IL-1beta production at 50 uM after 24 hrs by ELISA. Type of series: functional, cell-based. A general note: In an ELISA, binding on a coated surface is turned into a signal by an enzyme label.
Series [2] relates to Peritoneal macrophage cell. Description: Immunomodulatory activity mouse peritoneal macrophages assessed as inhibition of LPS-induced TNFalpha production at 50 uM after 24 hrs by ELISA. Type of series: functional, cell-based.
A short description of series [3]: Cytotoxicity against BALB/c mouse splenocytes assessed as cell viability after 24 hrs by [3H]-thymidine incorporation assay. Type of series: cell-based, Splenocyte. Also on record: concentration or dose not given beside the values. Conditions: read-out: Activity.
For series [4], the system named is Splenocyte. Description: Immunomodulatory activity in BALB/c mouse splenocytes assessed as inhibition of LPS-induced nitric oxide production at 25 ug/ml after 72 hrs by Griess method relative to control. Type of series: functional. For orientation: Griess reagent forms a coloured azo dye with nitrite.
Series [5] concerns Splenocyte. In words: Immunomodulatory activity in BALB/c mouse splenocytes assessed as inhibition of LPS-induced nitric oxide production at 50 ug/ml after 72 hrs by Griess method relative to control. Type of series: functional.
Series [6] can be described thus: Cytotoxicity against BALB/c mouse splenocytes assessed as highest nontoxic concentration after 24 hrs by [3H]-thymidine incorporation assay. Type of series: cell-based, Splenocyte. Conditions: read-out: Activity.
For series [7], the system named is Mus musculus. In words: Antiinflammatory activity in carrageenan-induced air pouch mouse model assessed as inhibition of leukocyte migration from blood circulation into air pouches at 100 mg/kg, po administered 1 hr before carrageenan challenge measured after 6 hrs relative to control. Type of series: functional.
For series [8], the system named is Mus musculus. Description: Antiinflammatory activity in carrageenan-induced air pouch mouse model assessed as inhibition of leukocyte migration from blood circulation into air pouches at 10 mg/kg, po administered 1 hr before carrageenan challenge measured after 6 hrs relative to control. Type of series: functional.
Series [9] relates to Mus musculus. In words: Immunomodulatory activity in carrageenan-induced air pouch mouse model assessed as reduction of nitric oxide production in air pouch at 10 mg/kg, po by Griess method. Type of series: functional, organism-based. Also on record: dose 10 mg/kg.

The inhibition is the relative decrease from the control value, in per cent. `COc1cccc2c1C(=O)c1c(O)c3c(c(O)c1C2=O)C[C@@](O)(C(=O)CO)C[C@@H]3O[C@H]1C[C@H](N)[C@H](O)[C@H](C)O1` [DOXORUBICIN]: the inhibition at 25 µg/mL with SF-295 was determined as 81.4%; with HCT-8, 97.1%; with MDA-MB-435, 94.6%.
By inhibition in vivo is commonly meant the percentage by which the read-out fell short of the control. Take `O=C(O)CN1C(=O)c2ccccc2C1=O`: the inhibition result in series [1] and in [2] was “Active” each time. The inhibition at 25 µg/mL in the series on SF-295 was 3.98%; with HCT-8, -0.61%; in the series on MDA-MB-435, -4.72%. Also, the viability at 24 h in series [3] worked out at 25.6%. For the same compound, the Activity in the series on Splenocyte [4] came out at 4.2 µg/mL; with Splenocyte [5] it was 3.6 µg/mL. Further, the MNTC at 24 h in series [6] came out at 50 µg/mL. Besides, in the series on Mus musculus [7], the inhibition in vivo at 100 mg/kg amounted to 47.7%.
Turning to `O=C(O)CC[C@@H](C(=O)O)N1C(=O)c2ccccc2C1=O`, the inhibition at 25 µg/mL stood at 14.4% in the series with SF-295, 6.52% in the series on HCT-8 and 12.9% in the series on MDA-MB-435. The viability at 24 h in series [3] turned out to be 8.75%. Moreover, the results for the Activity in the series on Splenocyte [4] and in the series on Splenocyte [5] were 2.9 µg/mL and 3.4 µg/mL, respectively. Also, in series [6], the MNTC at 24 h was determined as 50 µg/mL. The inhibition in vivo at 100 mg/kg in the series on Mus musculus [7] was 61.7%.
Turning to `O=C(O)[C@H](Cc1ccccc1)N1C(=O)c2ccccc2C1=O`, in series [1], the inhibition result was “Active”. The inhibition at 25 µg/mL is 13.5% in the series with SF-295, -7.23% in the series on HCT-8 and 11.7% with MDA-MB-435. Further, in series [3], the viability at 24 h is 21.5%. The values for the Activity in the series on Splenocyte [4] and in the series with Splenocyte [5] were 2.3 µg/mL and 0.7 µg/mL, respectively. The MNTC at 24 h in series [6] was 25 µg/mL. In addition, the inhibition in vivo at 100 mg/kg in the series with Mus musculus [7] was 64.2%.
Take `CC[C@H](C)[C@@H](C(=O)O)N1C(=O)c2ccccc2C1=O`: the inhibition at 25 µg/mL was determined as 20% with SF-295, 15% with HCT-8 and 14.9% with MDA-MB-435. In addition, in the series on Mus musculus [8], the inhibition in vivo at 10 mg/kg is 64.7%. In addition, in [3], the viability at 24 h came to 26.1%. The Activity amounted to 3.1 µg/mL in the series on Splenocyte [4] and 2.3 µg/mL in the series with Splenocyte [5]. In addition, the MNTC at 24 h in series [6] came out at 12.5 µg/mL. For the same compound, the inhibition in vivo at 100 mg/kg in the series on Mus musculus [7] stood at 67.5%.
As to `O=C(O)[C@H](Cc1c[nH]c2ccccc12)N1C(=O)c2ccccc2C1=O`, the inhibition entry in [1] and in [2] was “Active” in each case. Also, the inhibition at 25 µg/mL came to 24.5% in the series on SF-295, 10.4% in the series with HCT-8 and 13.8% in the series on MDA-MB-435. For the same compound, the outcome in the series on Mus musculus [9] was Active. Further, in [3], the viability at 24 h is 27.6%. Besides, the Activity with Splenocyte [4] worked out at 1.3 µg/mL; with Splenocyte [5] it was 2.1 µg/mL. Moreover, in series [6], the MNTC at 24 h was 50 µg/mL. In addition, the inhibition in vivo at 100 mg/kg in the series with Mus musculus [7] was found to be 43.8%.
`CC(C)[C@@H](C(=O)O)N1C(=O)c2ccccc2C1=O`: the figures for the inhibition at 25 µg/mL with SF-295, in the series on HCT-8 and in the series with MDA-MB-435 were 2.74%, 4.28% and 7.82%, respectively. Besides, the viability at 24 h in series [3] turned out to be 24.7%. Moreover, the Activity with Splenocyte [4] amounted to 6.4 µg/mL; with Splenocyte [5], 2.7 µg/mL. Besides, the MNTC at 24 h in series [6] was found to be 25 µg/mL. In addition, the inhibition in vivo at 100 mg/kg with Mus musculus [7] was found to be 57.8%.
On to `C[C@@H](C(=O)O)N1C(=O)c2ccccc2C1=O`, for which the results for the inhibition at 25 µg/mL in the series on SF-295, in the series on HCT-8 and with MDA-MB-435 were 12.2%, 6.11% and 5.01%, respectively. Besides, the Activity in the series on Splenocyte [4] was 2.1 µg/mL; with Splenocyte [5], 1.5 µg/mL. Besides, the MNTC at 24 h in [6] was greater than 100 µg/mL. For the same compound, the inhibition in vivo at 100 mg/kg in the series with Mus musculus [7] was found to be 38.4%.
For `O=C1CCC(N2C(=O)c3ccccc3C2=O)C(=O)N1` (centres undefined) [THALIDOMIDE], the inhibition in vivo at 10 mg/kg in the series with Mus musculus [8] came to 76.3%. The result with Mus musculus [9] was Active. The Activity with Splenocyte [4] and in the series on Splenocyte [5] was 3.6 µg/mL throughout. Besides, the MNTC at 24 h in series [6] was greater than 100 µg/mL. In the series on Mus musculus [7], the inhibition in vivo at 100 mg/kg was 72.1%.
Consider `O=C(O)CCN1C(=O)c2ccccc2C1=O`, for which the inhibition at 25 µg/mL in the series on SF-295 is 12.6%; in the series with HCT-8 it was 18.9%; in the series on MDA-MB-435 it was -3.71%. The viability at 24 h in [3] amounted to 22.2%. In addition, the Activity came out at 3.6 µg/mL in the series with Splenocyte [4] and 4.4 µg/mL in the series on Splenocyte [5]. Besides, in series [6], the MNTC at 24 h was found to be 50 µg/mL. The inhibition in vivo at 100 mg/kg in the series with Mus musculus [7] came to 54.2%.
